The structures appear in SMILES notation.

As for `FC(F)Oc1cnnc(-c2cccc(C(F)(F)F)c2)c1`, the melting point lay within 70 to 72 °C.

In turn, `CCc1noc(CC(=O)N(C)c2ccccc2)n1` displayed a melting point of 53 °C.

`CCN(CC)CCCCC(=O)c1cccc2cc3c(C(=O)CCCCN(CC)CC)cccc3cc12` yielded a melting point of 65 to 67 °C.

As for `COc1ccc(SSC)cc1`, the melting point was in the range of 98 to 100 °C.

The compound `Cc1ccc2c(c1)c1cc(-c3ccc(O)cc3)c(=O)n(C)c1n2C` had a melting point of more than 280 °C.

`CC1CC=C(c2ccc(C(C)O)cc2)CC1` (stereo unspecified) displayed a melting point of 65 to 67 °C.

`COc1ccc(S(=O)(=O)C2(C(=O)O)CCN(Cc3cccc(OC)c3)CC2)cc1` had a melting point of 130 °C.

On to `CCCCOc1c(NC(CC)CC)c(=O)c1=O`, for which the melting point lay in the range of 65 to 66 °C.

As for `Cn1cc(Br)cc(Nc2ccn(C3CC3)n2)c1=O`, the melting point fell in the range of 161 to 163 °C.

`CN(CC1Nc2cc(Cl)c(S(N)(=O)=O)cc2S(=O)(=O)N1)C(=O)CBr` (stereo unspecified) returned a melting point of 150 to 152 °C.

As for `CC(C#CC1CC1)N(O)C(N)=O` (stereo unspecified), the melting point is 142 to 143 °C.

The compound `O=c1[nH][nH]c(=O)c2nc3ccccc3cc12` showed a melting point of 345 to 349 °C.

`COc1cc2c(c(Cl)c1Cl)C(=O)C(C)(c1ccccc1)C2` (stereo unspecified): the melting point lay in the range of 161 to 163 °C.

In turn, `O=S(=O)(Nc1cccc(Br)n1)c1cc(S(=O)(=O)Nc2cccc(Br)n2)c2ccccc2c1` displayed a melting point of 205 to 208 °C.

In turn, `CC(C)(OCc1cc2cc(C(F)(F)F)ccc2n1S(=O)(=O)c1ccccc1)C(=O)O` gave a melting point of 134 to 136 °C.

For `O=C(C(=C1NCCCS1)[N+](=O)[O-])c1ccccc1`, the melting point was 137 to 140 °C.

For `CC(=O)NCCCC(=O)c1ccc(Cl)cc1CCC(=O)O`, the melting point was in the range of 90 to 92 °C.

As to `N#Cc1ccc(-c2ccc(OCc3ccc4ccccc4n3)cc2)c(-c2ccncc2)c1`, the melting point is 190 to 193 °C.

`Cc1cc2c(cc1O)C(C)(C)CC1(CC(C)(C)c3cc(OC(C)(C)CO)c(C)cc3O1)O2` (stereo unspecified) had a melting point of 188 to 189 °C.

`NC(=O)C1CN(CC(=O)Nc2c(Cl)cccc2Cl)CCN1` (stereo unspecified) yielded a melting point of 180 to 183 °C.

Turning to `COc1ncc(C(F)(F)F)cc1C=NO`, the melting point lay in the range of 98 to 104 °C.

`O=[N+]([O-])c1cc([N+](=O)[O-])c2ccccc2c1Nc1ccc(OC(F)(F)F)c(Cl)c1` yielded a melting point of 140 °C.

`COc1ccc(-c2n[nH]c(=O)c3cc(OC)ccc23)cc1` came in with a melting point of 245 °C.

In turn, `CS(=O)(=O)OCC1COC(=O)N1c1ccc(Cl)cc1` (stereo unspecified) displayed a melting point of 124 to 126 °C.

`O=C(O)Cc1cccc2c(-c3ccccc3Cl)nccc12`: the melting point turned out to be 190 °C.

For `CCCCCCOc1ccc(N=C(NC#N)NCCC(C)(C)C)cc1`, the melting point lay in the range of 183 to 184 °C.

Regarding `CCC1Nc2cc(F)c(F)c(F)c2-n2cccc21` (stereo unspecified), the melting point was 69 to 70 °C.

With `COc1ccc2c(c1CCc1ccccc1)CCCC2=O`, the melting point was in the range of 102 to 105 °C.

Regarding `CCOc1cc(N)c(Cl)cc1C(=O)NCCC1CN(Cc2ccccc2)CCO1` (stereo unspecified), the melting point fell in the range of 149 to 151 °C.

The compound `Nc1nc2c(s1)C(=O)c1ccccc1C2=O` displayed a melting point of more than 260 °C.

Compound `Cc1cccc2c1N(C)CS2=O` (stereo unspecified) came in with a melting point of 122 to 124 °C.

`C=CCN1CCNC1=C[N+](=O)[O-]` yielded a melting point of 97 to 98 °C.

`Cc1c(-c2ccccc2)oc2c(OCCCCBr)cccc2c1=O` came in with a melting point of 91 to 92 °C.

For `CCc1nc2c(c(=O)n(C)c(=O)n2-c2ccc(Cl)cc2Cl)n1Cc1ccc(OC)cc1`, the melting point lay within 209 to 210 °C.

`Cc1ccc2c(C3CCN(CCN4CCN(C(C)C)C4=O)CC3)cn(-c3ccc(F)cc3)c2c1` yielded a melting point of 124 °C.

Take `CC(=O)C1(C)CCCS1(=O)=O` (stereo unspecified): the melting point lay within 47 to 48 °C.

As for `CCOCC1COc2c(cc(N)cc2C(F)(F)F)O1` (stereo unspecified), the melting point fell in the range of 96 to 98 °C.

In turn, `O=c1ccn(CCO)c(C(O)c2ccccc2OCc2ccccc2)c1OCc1ccccc1` (stereo unspecified) returned a melting point of 196 to 197 °C.

In turn, `Cc1cc(C)c(NC(=O)N=C2CCCN2C)c(C)c1` returned a melting point of 121 to 123 °C.

As for `Cc1ccc(CCC(=O)CC(=O)CCc2ccc(C)cc2)cc1`, the melting point lay in the range of 45.6 to 46.8 °C.

Compound `COc1c(N2C[C@H](CF)[C@](C)(N)C2)c(F)cc2c(=O)c(C(=O)O)cn([C@@H]3C[C@@H]3F)c12` returned a melting point of 187 to 189 °C.

`CC(C)(C)OC(=O)N(CCO)C1CCN(c2ccc3c(NC(=O)CC4CCCCC4)c(Cl)ccc3n2)C1` (stereo unspecified) displayed a melting point of 115 to 120 °C.

`C=CCOc1ccc2cc(C(=O)OCC)[nH]c2c1` yielded a melting point of 89 to 91 °C.

The compound `CS(=O)(=O)c1ccc(-c2nc(C(F)(F)F)nc(Cl)c2-c2ccc(Cl)cc2)cc1` had a melting point of 188 to 190 °C.

With `O=C(CCl)CCc1ccc(Cl)cc1`, the melting point is 65 to 67 °C.

On to `COC(=O)Cc1nc(-c2ccc3ccccc3c2)oc1C`, for which the melting point was 86 to 87 °C.

Compound `CCCCCCCCCCc1ccnc(C(=O)NCCCCC(=O)O)c1` displayed a melting point of 54 to 56 °C.

The compound `Cc1cccc2cc(C(=O)N(C)C)c(C=CNc3ccccc3)nc12` showed a melting point of 143 to 146 °C.

In turn, `CC(C)Oc1ccccc1CN1CCC(=O)C(C(c2ccc(F)cc2)c2ccc(F)cc2)C1` (stereo unspecified) displayed a melting point of 155 to 156 °C.

The compound `COc1ccc(N2CCN(c3ccc(F)cc3)C(=O)C2)c(-c2ccc(N(C)C)cc2)n1` yielded a melting point of 158 to 164 °C.

`CCCCCC[C@H]1C[C@@H](C)OC1=O` (relative stereo) showed a melting point of 28.5 °C.

`CCn1cc(C(=O)O)c(=O)c2cc(F)c(-n3cccc3)cc21`: the melting point was in the range of 251 to 252 °C.

As to `Cn1cccc1-c1ccc2c(c1)C1(CCCCC1)C(=O)N2`, the melting point turned out to be 210 °C.

As for `CC(C)(C)OC(=O)[C@@H]1CCC(=S)N1Cc1ccccc1`, the melting point lay within 72 to 78 °C.

`COc1ccc(/C=C/C(=O)/C=C/C(=O)O)cc1` registered a melting point of 104 °C.

Compound `CCOc1nn(-c2cccc3c2OC(C)(C)C3)c(=O)o1` came in with a melting point of 72 to 74 °C.

`CSc1nc(=O)n(Cc2ccccc2)c2ncn(C)c12` gave a melting point of 268 to 270 °C.

`Cc1cccc(Nc2nc(N)ncc2S(N)(=O)=O)c1` showed a melting point of 213 to 215 °C.

The compound `Cc1nc(N2CCCC(CCCc3ccccc3)C2=O)sc1C(=O)NCc1ccccc1` (stereo unspecified) came in with a melting point of 140 to 141 °C.

On to `CCCn1nc2c(N)nc3ccccc3c2c1CC(C)(C)NC(=O)c1cccnc1`, for which the melting point was 203 to 205 °C.

Consider `CCOc1cc2c(cc1OCC)C(c1ccccc1)=NCC(=O)N2`, for which the melting point lay within 233 to 236 °C.

Compound `O=[N+]([O-])c1cccc(C#Cc2c(F)c(F)nc(F)c2F)c1` gave a melting point of 130 to 131 °C.

`Cc1c(C(=O)N[C@H](C)[C@](O)(Cn2cncn2)c2ccc(F)cc2F)cnn1-c1ccc(Br)cc1` gave a melting point of 153 to 154 °C.

`O=C1CCCC2=C1C(c1ccc(F)c(I)c1)C1=C(CCS1)N2` (stereo unspecified): the melting point was more than 250 °C.

On to `CCOC(=O)c1cn(-c2nc3ccccc3s2)cn1`, for which the melting point fell in the range of 131 to 133 °C.

`COc1ccccc1-c1cn(C)cc(-c2cccc(C(F)(F)F)c2)c1=O` yielded a melting point of 193 to 196 °C.

In turn, `O=C(Nc1cc(F)c(N2CC(=O)N(COC3CCCCO3)C2)c(F)c1)OCc1ccccc1` (stereo unspecified) came in with a melting point of 116 to 118 °C.

In the case of `COc1ccc(C2=NN(c3ccc4c(c3)COC4=O)C(=O)[C@H]3CC=CC[C@@H]23)cc1Cl` (relative stereo), the melting point lay in the range of 212 to 213 °C.

In turn, `COc1ccc2c(c1CNC(=O)OCC1c3ccccc3-c3ccccc31)Oc1c(ccc(OC)c1CC(=O)O)C2(C)C` displayed a melting point of 134 to 136 °C.

The compound `O=C1NC(=O)[C@@]2(C[C@@H](C(=O)NCCO[N+](=O)[O-])Oc3ccc(F)cc32)N1` returned a melting point of 266 to 271 °C.

In the case of `CN(SCl)C(=O)Nc1ccc(Cl)c(Cl)c1`, the melting point was 142 to 145 °C.

Turning to `O=C(Cl)C1CCCCC1`, the melting point was in the range of 41 to 42 °C.

Turning to `Nc1cc(Cl)c(Oc2ccc(Cl)cc2)cc1C(=O)O`, the melting point was in the range of 160 to 170 °C.

In turn, `CCOC(=O)C1CC2CCC(=O)N2C1=O` (stereo unspecified) yielded a melting point of 65 to 67 °C.

`CS(=O)(=O)O[C@H]1CC[C@H](Nc2ccnc3cc(Cl)ccc23)CC1` yielded a melting point of 154 to 159 °C.

Regarding `CCCCCCCCCCCCCCOc1ccc(CN2C(=O)c3ccncc3C2=O)cc1`, the melting point is 76 to 77 °C.

Take `Cc1cc(C)cc(Oc2c(CO)c(C)[nH]c(=O)c2I)c1`: the melting point was in the range of 248 to 250 °C.

`CCCCCCCCCCCCC(C)COc1ccc(C(=O)O)o1` (stereo unspecified) had a melting point of 88 to 90 °C.

Consider `Cc1cccc(NC(=O)NCC(=O)N(CC(=O)Nc2ccc3c(c2)CCC3)c2ccccc2)c1`, for which the melting point turned out to be 210 °C.

Turning to `COc1ccc(N(C(=O)CN2C(=O)C(Cc3nn(Cc4ccccc4)c4ccccc34)(OC)C(=O)Nc3ccccc32)C(C)C)cc1` (stereo unspecified), the melting point is 202 to 204 °C.

As for `O=S(=O)(N[C@H](CO)C1CCCCC1)c1ccc(Cl)cc1`, the melting point lay within 115 to 118 °C.

For `CN1CCc2[nH]c(=O)n3nc(-c4ccccc4F)nc3c2C1`, the melting point lay in the range of 285 to 287 °C.

With `Cn1c(C(F)(F)F)cc(=O)n(-c2cc(OS(=O)(=O)Cl)c(Cl)cc2F)c1=O`, the melting point was in the range of 133 to 135 °C.

As for `Cc1cc(Nc2ccnc(Nc3ccc(S(=O)(=O)N(C)C4CCN(C)CC4)cc3)n2)ccc1F`, the melting point lay in the range of 110 to 120 °C.

The compound `Cc1conc1-c1nnc2c3ccccc3c(OCc3ccccn3)nn12` registered a melting point of 164 °C.

In turn, `Cc1c(CO)c2c(c(C)c1NC(=O)CC(C)(C)C)C(c1ccc(C(C)C)cc1)CO2` (stereo unspecified) showed a melting point of 274 to 275 °C.

With `COc1ccc(SC2=C(C(=O)O)CCC2=CCCc2ccccc2)cc1OC`, the melting point was 146 to 148 °C.

Turning to `COc1c(N2CCC(N)C(C)(C)C2)c(F)cc2c(=O)c(C(=O)O)cn(C3CC3)c12` (stereo unspecified), the melting point lay in the range of 222 to 224 °C.

On to `Nc1cc(-n2cccc2)ccc1Nc1cccc(-n2ccnc2)c1`, for which the melting point fell in the range of 207 to 212 °C.

Compound `CC1(C)Nc2ccccc2NC1=S` registered a melting point of 140 to 142 °C.

Consider `O=c1[nH]c2ccccc2c(-c2ccccc2)c1-c1csc(-c2ccncc2)n1`, for which the melting point is more than 250 °C.

These data come from a melting point compilation (Tetko et al.; mined from patent text by program, amines drawn as free bases though some values may be those of a salt).
